Reference: ChEMBL document CHEMBL4507292 (2021)

Experiments:
[1] = system: Epidermal growth factor receptor (Homo sapiens), P00533 [L858R]; settings: Compound concentration 1000.0 nM
[2] = system: Tyrosine-protein kinase ABL1 (Homo sapiens), P00519 [F317L]; settings: Compound concentration 1000.0 nM
[3] = molecular target: T1, 5-hydroxytryptamine receptor 2C (Homo sapiens) (UniProt P28335); settings: Compound concentration 10.0 uM
T1 sequence (whole entry): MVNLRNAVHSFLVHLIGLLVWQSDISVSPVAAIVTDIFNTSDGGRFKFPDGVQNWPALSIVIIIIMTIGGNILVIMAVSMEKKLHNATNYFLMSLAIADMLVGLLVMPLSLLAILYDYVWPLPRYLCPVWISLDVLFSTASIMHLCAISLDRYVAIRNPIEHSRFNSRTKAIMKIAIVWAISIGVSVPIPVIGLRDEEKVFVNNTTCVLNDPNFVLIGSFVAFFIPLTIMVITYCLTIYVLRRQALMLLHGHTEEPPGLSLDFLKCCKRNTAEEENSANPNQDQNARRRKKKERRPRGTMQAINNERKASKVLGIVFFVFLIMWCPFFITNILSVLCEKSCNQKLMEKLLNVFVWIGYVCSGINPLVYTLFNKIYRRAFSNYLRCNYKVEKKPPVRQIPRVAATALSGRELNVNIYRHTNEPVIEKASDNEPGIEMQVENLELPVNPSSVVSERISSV

[4] = molecular target: Dual specificity mitogen-activated protein kinase kinase 7 (Homo sapiens) (UniProt O14733); settings: Compound concentration 1000.0 nM
[5] = molecular target: Serine/threonine-protein kinase RIO3 (Homo sapiens) (UniProt O14730); settings: Compound concentration 1000.0 nM
[6] = molecular target: Phosphatidylinositol 4,5-bisphosphate 3-kinase catalytic subunit gamma isoform (Homo sapiens) (UniProt P48736); settings: Compound concentration 1000.0 nM
[7] = molecular target: Protein kinase C theta type (Homo sapiens) (UniProt Q04759); settings: Compound concentration 1000.0 nM
[8] = molecular target: Mitogen-activated protein kinase 4 (Homo sapiens) (UniProt P31152); settings: Compound concentration 1000.0 nM
[9] = system: Epidermal growth factor receptor (Homo sapiens), P00533 [T790M]; settings: Compound concentration 1000.0 nM
[10] = molecular target: Membrane-associated tyrosine- and threonine-specific cdc2-inhibitory kinase (Homo sapiens) (UniProt Q99640); settings: Compound concentration 1000.0 nM
[11] = molecular target: Serine/threonine-protein kinase 24 (Homo sapiens) (UniProt Q9Y6E0); settings: Compound concentration 1000.0 nM
Chain of Serine/threonine-protein kinase 24 (Homo sapiens) (Q9Y6E0 whole entry, looked up): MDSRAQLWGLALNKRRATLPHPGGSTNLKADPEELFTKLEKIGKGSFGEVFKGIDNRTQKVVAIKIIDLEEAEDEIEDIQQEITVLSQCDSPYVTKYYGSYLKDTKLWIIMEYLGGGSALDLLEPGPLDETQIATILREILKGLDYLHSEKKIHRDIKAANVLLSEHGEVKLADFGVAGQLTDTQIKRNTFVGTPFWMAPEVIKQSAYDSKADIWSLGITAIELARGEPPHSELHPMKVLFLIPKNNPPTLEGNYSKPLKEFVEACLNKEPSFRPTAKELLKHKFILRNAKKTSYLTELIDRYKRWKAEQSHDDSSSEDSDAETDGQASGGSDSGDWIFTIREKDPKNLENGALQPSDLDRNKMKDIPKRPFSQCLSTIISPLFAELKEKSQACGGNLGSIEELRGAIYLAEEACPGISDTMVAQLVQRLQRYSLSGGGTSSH

[12] = molecular target: Cyclin-dependent kinase 4 (Homo sapiens) (UniProt P11802); settings: Compound concentration 1000.0 nM
Chain of Cyclin-dependent kinase 4 (Homo sapiens) (P11802 whole entry): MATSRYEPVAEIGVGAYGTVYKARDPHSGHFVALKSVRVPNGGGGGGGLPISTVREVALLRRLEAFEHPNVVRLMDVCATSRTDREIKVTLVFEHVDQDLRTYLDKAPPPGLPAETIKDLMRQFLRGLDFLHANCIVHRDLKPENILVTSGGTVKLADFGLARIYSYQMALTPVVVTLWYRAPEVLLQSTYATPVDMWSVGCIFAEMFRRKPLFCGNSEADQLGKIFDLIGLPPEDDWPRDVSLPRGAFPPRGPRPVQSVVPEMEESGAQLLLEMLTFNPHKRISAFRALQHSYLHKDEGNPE

[13] = molecular target: NUAK family SNF1-like kinase 1 (Homo sapiens) (UniProt O60285); settings: Compound concentration 1000.0 nM
[14] = molecular target: Serine/threonine-protein kinase SIK3 (Homo sapiens) (UniProt Q9Y2K2); settings: Compound concentration 1000.0 nM
[15] = molecular target: Ribosomal protein S6 kinase alpha-5 (Homo sapiens) (UniProt O75582); settings: Compound concentration 1000.0 nM
Chain of Ribosomal protein S6 kinase alpha-5 (Homo sapiens) (O75582 whole entry, looked up): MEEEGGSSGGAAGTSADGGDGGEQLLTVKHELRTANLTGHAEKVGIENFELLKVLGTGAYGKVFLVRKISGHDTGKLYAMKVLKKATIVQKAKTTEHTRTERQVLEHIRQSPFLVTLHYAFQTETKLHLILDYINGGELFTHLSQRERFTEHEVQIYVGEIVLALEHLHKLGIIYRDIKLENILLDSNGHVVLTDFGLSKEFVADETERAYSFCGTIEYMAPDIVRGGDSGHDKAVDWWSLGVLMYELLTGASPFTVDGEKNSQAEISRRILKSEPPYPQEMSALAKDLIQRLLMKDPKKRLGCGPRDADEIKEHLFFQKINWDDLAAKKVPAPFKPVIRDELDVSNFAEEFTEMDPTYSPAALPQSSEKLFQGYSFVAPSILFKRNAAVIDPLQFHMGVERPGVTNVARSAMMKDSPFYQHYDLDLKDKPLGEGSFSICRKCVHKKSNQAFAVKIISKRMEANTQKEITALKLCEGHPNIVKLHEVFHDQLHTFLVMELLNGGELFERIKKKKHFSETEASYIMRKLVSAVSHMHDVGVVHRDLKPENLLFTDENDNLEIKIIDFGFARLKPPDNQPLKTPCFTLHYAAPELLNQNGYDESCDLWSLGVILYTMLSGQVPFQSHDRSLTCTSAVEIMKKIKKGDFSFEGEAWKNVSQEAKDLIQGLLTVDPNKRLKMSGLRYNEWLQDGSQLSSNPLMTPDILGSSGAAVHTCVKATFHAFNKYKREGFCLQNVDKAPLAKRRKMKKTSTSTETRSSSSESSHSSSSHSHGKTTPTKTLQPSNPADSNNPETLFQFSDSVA

[16] = molecular target: Fibroblast growth factor receptor 1 (Homo sapiens) (UniProt P11362); settings: Compound concentration 1000.0 nM
Chain of Fibroblast growth factor receptor 1 (Homo sapiens) (P11362 22-822 limits assumed): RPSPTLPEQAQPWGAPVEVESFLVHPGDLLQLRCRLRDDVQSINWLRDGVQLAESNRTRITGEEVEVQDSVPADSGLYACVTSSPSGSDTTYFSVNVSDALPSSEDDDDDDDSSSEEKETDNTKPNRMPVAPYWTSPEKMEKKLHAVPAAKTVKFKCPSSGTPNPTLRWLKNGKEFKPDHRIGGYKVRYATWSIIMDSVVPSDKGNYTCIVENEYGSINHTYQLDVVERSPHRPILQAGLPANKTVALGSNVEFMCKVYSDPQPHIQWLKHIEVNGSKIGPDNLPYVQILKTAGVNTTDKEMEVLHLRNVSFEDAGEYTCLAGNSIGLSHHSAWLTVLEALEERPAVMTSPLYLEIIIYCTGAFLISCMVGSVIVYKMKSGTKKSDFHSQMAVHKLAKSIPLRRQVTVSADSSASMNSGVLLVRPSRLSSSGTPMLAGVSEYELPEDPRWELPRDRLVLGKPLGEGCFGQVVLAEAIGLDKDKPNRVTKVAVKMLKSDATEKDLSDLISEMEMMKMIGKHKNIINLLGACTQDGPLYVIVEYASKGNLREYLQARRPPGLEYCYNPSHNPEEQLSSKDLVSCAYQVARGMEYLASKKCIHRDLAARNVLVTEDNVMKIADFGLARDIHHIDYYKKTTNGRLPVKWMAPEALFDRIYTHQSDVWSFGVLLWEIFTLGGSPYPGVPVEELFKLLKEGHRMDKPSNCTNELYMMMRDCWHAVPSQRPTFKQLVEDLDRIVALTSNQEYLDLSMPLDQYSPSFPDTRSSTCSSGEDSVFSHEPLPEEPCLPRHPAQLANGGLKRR

[17] = molecular target: Cyclin-dependent kinase 7 (Homo sapiens) (UniProt P50613); settings: Compound concentration 1000.0 nM
[18] = molecular target: Serine/threonine-protein kinase pim-2 (Homo sapiens) (UniProt Q9P1W9); settings: Compound concentration 1000.0 nM
[19] = molecular target: cAMP-dependent protein kinase catalytic subunit PRKX (Homo sapiens) (UniProt P51817); settings: Compound concentration 1000.0 nM
[20] = molecular target: Mitogen-activated protein kinase kinase kinase kinase 4 (Homo sapiens) (UniProt O95819); settings: Compound concentration 1000.0 nM
[21] = molecular target: Serine/threonine-protein kinase TNNI3K (Homo sapiens) (UniProt Q59H18); settings: Compound concentration 1000.0 nM
[22] = molecular target: Delta-type opioid receptor (Homo sapiens) (UniProt P41143); settings: Compound concentration 10.0 uM
Chain of Delta-type opioid receptor (Homo sapiens) (P41143 whole entry): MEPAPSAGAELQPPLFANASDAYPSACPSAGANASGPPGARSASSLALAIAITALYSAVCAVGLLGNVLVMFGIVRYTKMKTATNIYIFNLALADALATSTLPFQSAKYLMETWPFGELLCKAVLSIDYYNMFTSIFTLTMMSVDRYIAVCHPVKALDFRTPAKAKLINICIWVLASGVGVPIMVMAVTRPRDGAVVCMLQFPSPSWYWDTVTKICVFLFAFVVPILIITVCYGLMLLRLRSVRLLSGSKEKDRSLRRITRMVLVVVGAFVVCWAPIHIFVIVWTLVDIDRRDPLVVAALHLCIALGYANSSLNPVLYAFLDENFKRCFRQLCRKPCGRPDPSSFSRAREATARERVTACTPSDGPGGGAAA

[23] = molecular target: Phosphatidylinositol 4-phosphate 5-kinase type-1 gamma (Homo sapiens) (UniProt O60331); settings: Compound concentration 1000.0 nM
[24] = molecular target: Uncharacterized serine/threonine-protein kinase SBK3 (Homo sapiens) (UniProt P0C264); settings: Compound concentration 1000.0 nM
[25] = molecular target: Calcium/calmodulin-dependent protein kinase kinase 2 (Homo sapiens) (UniProt Q96RR4); settings: Compound concentration 1000.0 nM
[26] = molecular target: Sigma intracellular receptor 2 (Homo sapiens, UniProt Q5BJF2); test: GPCRScan assay: inhibition of Sigma 2; design: radioligand conc. used [nm] 5.0, parental cells HEKT
Chain of Sigma intracellular receptor 2 (Q5BJF2 whole entry): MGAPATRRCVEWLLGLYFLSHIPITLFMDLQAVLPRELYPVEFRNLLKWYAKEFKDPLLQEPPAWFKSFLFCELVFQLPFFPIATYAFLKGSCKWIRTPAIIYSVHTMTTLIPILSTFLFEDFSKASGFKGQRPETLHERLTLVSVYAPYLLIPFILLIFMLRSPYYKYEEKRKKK

D(1B) dopamine receptor = D(1B) dopamine receptor (Homo sapiens, UniProt P21918); settings: Compound concentration 10.0 uM
[27] = molecular target: Ephrin type-B receptor 1 (Homo sapiens) (UniProt P54762); settings: Compound concentration 1000.0 nM
[28] = molecular target: Beta-3 adrenergic receptor (Homo sapiens, UniProt P13945); settings: Compound concentration 10.0 uM
[29] = molecular target: Histamine H3 receptor (Homo sapiens) (UniProt Q9Y5N1); settings: Compound concentration 10.0 uM
[30] = molecular target: Cyclin-dependent kinase 11A (Homo sapiens) (UniProt Q9UQ88); settings: Compound concentration 1000.0 nM
[31] = molecular target: Serine/threonine-protein kinase MARK1 (Homo sapiens) (UniProt Q9P0L2); settings: Compound concentration 1000.0 nM
Chain of Serine/threonine-protein kinase MARK1 (Homo sapiens) (Q9P0L2 whole entry, looked up): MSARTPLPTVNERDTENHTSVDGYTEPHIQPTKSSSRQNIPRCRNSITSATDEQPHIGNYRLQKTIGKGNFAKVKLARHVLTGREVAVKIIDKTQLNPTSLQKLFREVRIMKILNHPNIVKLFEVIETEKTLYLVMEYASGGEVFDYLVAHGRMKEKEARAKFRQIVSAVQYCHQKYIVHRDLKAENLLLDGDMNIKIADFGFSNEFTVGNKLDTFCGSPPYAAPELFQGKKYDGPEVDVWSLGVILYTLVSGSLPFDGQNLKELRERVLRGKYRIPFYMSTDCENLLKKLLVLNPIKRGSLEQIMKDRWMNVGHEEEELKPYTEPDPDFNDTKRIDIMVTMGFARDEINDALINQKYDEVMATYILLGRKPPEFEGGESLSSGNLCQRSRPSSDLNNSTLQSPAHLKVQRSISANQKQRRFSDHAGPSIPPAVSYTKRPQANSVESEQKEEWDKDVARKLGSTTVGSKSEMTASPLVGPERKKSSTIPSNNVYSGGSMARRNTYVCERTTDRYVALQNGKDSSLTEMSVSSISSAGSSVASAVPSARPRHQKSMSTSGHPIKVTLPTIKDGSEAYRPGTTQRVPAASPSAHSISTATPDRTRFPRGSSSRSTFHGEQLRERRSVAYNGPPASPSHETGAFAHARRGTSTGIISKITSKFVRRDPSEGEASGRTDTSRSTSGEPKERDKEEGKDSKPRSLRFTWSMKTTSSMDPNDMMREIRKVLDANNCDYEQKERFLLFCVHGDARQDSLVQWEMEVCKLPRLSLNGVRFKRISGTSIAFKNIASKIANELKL

[32] = molecular target: 5-hydroxytryptamine receptor 2A (Homo sapiens) (UniProt P28223); settings: Compound concentration 10.0 uM
[33] = system: ALK tyrosine kinase receptor (Homo sapiens), Q9UM73 [L1196M]; settings: Compound concentration 1000.0 nM
[34] = molecular target: STE20-like serine/threonine-protein kinase (Homo sapiens) (UniProt Q9H2G2); settings: Compound concentration 1000.0 nM
[35] = system: Receptor-type tyrosine-protein kinase FLT3 (Homo sapiens), P36888 [K663Q]; settings: Compound concentration 1000.0 nM
[36] = molecular target: Cyclin-dependent kinase 19 (Homo sapiens) (UniProt Q9BWU1); settings: Compound concentration 1000.0 nM
[37] = molecular target: Serine/threonine-protein kinase NIM1 (Homo sapiens) (UniProt Q8IY84); settings: Compound concentration 1000.0 nM
[38] = molecular target: Mitogen-activated protein kinase kinase kinase 11 (Homo sapiens) (UniProt Q16584); settings: Compound concentration 1000.0 nM

Chain of Tyrosine-protein kinase ABL1 (Homo sapiens), P00519 [F317L] (P00519 whole entry F317L): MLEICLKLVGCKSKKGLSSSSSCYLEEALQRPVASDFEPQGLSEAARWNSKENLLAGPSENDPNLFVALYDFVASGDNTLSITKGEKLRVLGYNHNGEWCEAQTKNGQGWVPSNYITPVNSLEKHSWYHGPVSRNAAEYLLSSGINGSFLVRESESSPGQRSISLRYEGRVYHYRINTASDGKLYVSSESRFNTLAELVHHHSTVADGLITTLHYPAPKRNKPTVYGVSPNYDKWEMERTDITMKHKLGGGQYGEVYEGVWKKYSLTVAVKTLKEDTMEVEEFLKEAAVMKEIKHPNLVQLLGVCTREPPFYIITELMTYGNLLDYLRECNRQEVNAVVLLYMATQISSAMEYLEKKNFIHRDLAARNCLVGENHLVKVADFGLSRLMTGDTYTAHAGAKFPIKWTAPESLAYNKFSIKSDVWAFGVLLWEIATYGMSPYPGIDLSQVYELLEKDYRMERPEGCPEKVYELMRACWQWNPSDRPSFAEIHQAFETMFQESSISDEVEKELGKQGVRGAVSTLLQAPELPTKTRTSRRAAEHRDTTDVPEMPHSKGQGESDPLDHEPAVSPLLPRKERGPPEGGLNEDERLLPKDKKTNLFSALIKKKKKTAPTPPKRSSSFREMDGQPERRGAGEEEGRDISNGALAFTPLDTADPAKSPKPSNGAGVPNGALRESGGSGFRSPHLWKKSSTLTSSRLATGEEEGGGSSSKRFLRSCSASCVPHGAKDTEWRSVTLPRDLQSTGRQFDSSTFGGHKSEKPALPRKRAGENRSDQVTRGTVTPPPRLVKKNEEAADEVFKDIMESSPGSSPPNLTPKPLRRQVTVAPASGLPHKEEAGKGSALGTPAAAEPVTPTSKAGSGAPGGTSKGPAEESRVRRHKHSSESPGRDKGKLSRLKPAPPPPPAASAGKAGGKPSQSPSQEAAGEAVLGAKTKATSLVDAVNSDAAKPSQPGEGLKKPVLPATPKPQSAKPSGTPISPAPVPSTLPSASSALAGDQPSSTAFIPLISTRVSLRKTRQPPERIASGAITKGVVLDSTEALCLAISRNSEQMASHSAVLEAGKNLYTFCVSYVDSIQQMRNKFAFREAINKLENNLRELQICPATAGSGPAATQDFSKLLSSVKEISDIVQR

Row | Structure (SMILES) | residual activity [1] [%] | residual activity [2] [%] | inhibition [3] [%] | residual activity [4] [%] | residual activity [5] [%] | residual activity [6] [%] | residual activity [7] [%] | residual activity [8] [%] | residual activity [9] [%] | residual activity [10] [%] | residual activity [11] [%] | residual activity [12] [%] | residual activity [13] [%] | residual activity [14] [%] | residual activity [15] [%] | residual activity [16] [%] | residual activity [17] [%] | residual activity [18] [%] | residual activity [19] [%] | residual activity [20] [%] | further results
1 | Cc1c(C(=O)O)cc(-c2ccc(C3CCNCC3)cc2)c2ccc(-c3ccc(C(F)(F)F)cc3)cc12 [PPTN-NC] | 100 | 100 | -4.53 | 100 | 100 | 100 | 100 | 100 | 87 | 100 | 100 | 100 | 100 | 100 | 100 | 100 | 97 | 100 | 100 | 76 | residual activity [21]: 100%; inhibition [22]: 32%; residual activity [23]: 98%; residual activity [24]: 80%; residual activity [25]: 100%; Ki [26]: 1700 nM; inhibition (D(1B) dopamine receptor): 58.1%; residual activity [27]: 100%; inhibition [28]: 57.5%; inhibition [29]: 7.04%; residual activity [30]: 100%; residual activity [31]: 100%; inhibition [32]: 23.4%; residual activity [33]: 100%; residual activity [34]: 100%; residual activity [35]: 100%; residual activity [36]: 100%; residual activity [37]: 92%; residual activity [38]: 100%
2 | O=C(O)c1cc(-c2ccc(C3CCNCC3)cc2)c2ccc(-c3ccc(C(F)(F)F)cc3)cc2c1 [PPTN] | 100 | 100 | 11.2 | 100 | 100 | 92 | 100 | 100 | 96 | 100 | 100 | 100 | 100 | 100 | 100 | 100 | 82 | 100 | 100 | 87 | residual activity [21]: 100%; inhibition [22]: 36.4%; residual activity [23]: 100%; residual activity [24]: 75%; residual activity [25]: 100%; Ki [26]: 1120 nM; inhibition (D(1B) dopamine receptor): 73.7%; residual activity [27]: 100%; inhibition [28]: 65.2%; inhibition [29]: 0.03%; residual activity [30]: 100%; residual activity [31]: 100%; inhibition [32]: 29.1%; residual activity [33]: 100%; residual activity [34]: 100%; residual activity [35]: 100%; residual activity [36]: 97%; residual activity [37]: 94%; residual activity [38]: 100%
